# Measured values as given in patent US10577362B2, “Substituted 2, 4-diamino-quinoline derivatives for use in the treatment of proliferative diseases” (GENOSCIENCE PHARMA, priority 2016, dated 2020).
# Where a name gives a salt, the structure may show the parent alone. Read-outs that look alike come from different tables or passages of the source.
# Columns and labels:
# Type in all cases: cell-based, human
# [1] = test system: 786-O (renal adenocarcinoma) cell line; assay: CellTiter-Glo luminescent cell viability assay, 786-O; settings: for viability at 4 µM / viability at 10 µM: 786-O, 72 h; for viability at 4 µM: compound at 4 μM; for viability at 10 µM: compound at 10 μM; for EC50: 786-O cell line, 72 h incubation, CellTiter-Glo, read-out: EC50, growth inhibition of 786-O
# Procedure: (§1) All cell lines were maintained in medium containing 1% penicillin-streptomycin (Dutscher, P06-07100) and 10% Fetal Bovine Serum (Hyclone Dutscher, RZK35922) cultured at 37° C. with 5% CO2. HepG2 (hepatocellular carcinoma), cell line was cultured in Dulbecco's modified Eagle's medium low glucose (Gibco, 21885025), Huh7 (hepatocellular carcinoma), HCT-116 (colorectal carcinoma), PANC-1 (prancreatic carcinoma) and A375 (malignant melanoma) cell lines were cultured in Dulbecco's modified Eagle's medium (Dutscher, L0103). MOLM-14 (acute myeloid leukemia) cell line was maintained in MEM alpha medium (Gibco, 22561-021). 786-0 (renal adenocarcinoma) cell lines were maintained in RPMI 1640 medium (Dutscher, L0498).
# (§2) Cell viability was measured using the CellTiter-Glo® luminescent cell viability assay as described by the manufacturer (Promega, Ref G7571) using an Infinite F200Pro luminometer (Tecan). Briefly, for adherent cells, cells were plated onto 96-well plates (white with clear bottom) in 90 μL of media per well and were allowed to grow overnight before the assay. For cells growing in suspension, cells were plated onto 96-well plates 1 h before the assay.
# (§3) Compounds were resuspended in H2O or DMSO and added at different concentrations to each well, and cell cultures were incubated for 72 h. Each diluent (H2O or DMSO) were used as a control, and all compounds were tested in a constant percentage of H2O or DMSO. On the day of the reading, plates are equilibrated 30 min at room temperature before the addition of 100 μL of CellTiter-Glo® and luminescence was measured using an Infinite F200Pro (Tecan). % cell viability were expressed as a percentage of the signal obtained for cell cultures treated with diluent. EC50 values were determined as the dose of compound required to reduce luminescent values to 50% of the signal obtained for cell cultures treated with diluent. The experimental data were analyzed using a computer program, Graphpad Prism v5 (GraphPad Software, Inc. La Jolla, Calif.). All points were at least done in duplicate.
# [2] = test system: A375 (malignant melanoma) cell line; assay: CellTiter-Glo luminescent cell viability assay, A375; settings: for viability at 4 µM: A375, compound at 4 μM; for viability at 4 µM / viability at 10 µM: 72 h; for viability at 10 µM: A375, compound at 10 μM; for EC50: A375 cell line, 72 h incubation, CellTiter-Glo, read-out: EC50, growth inhibition of A375
# Procedure: as §1, §2, §3
# [3] = test system: HepG2 (hepatocellular carcinoma) cell line; assay: CellTiter-Glo luminescent cell viability assay, HepG2; settings: for viability at 4 µM / viability at 10 µM: HepG2, HepG, 72 h; for viability at 4 µM: compound at 4 μM; for viability at 10 µM: compound at 10 μM; for EC50: HepG2 cell line, 72 h incubation, CellTiter-Glo, read-out: EC50, growth inhibition of HepG2
# Procedure: as §1, §2, §3
# [4] = test system: HCT-116 (colorectal carcinoma) cell line; assay: CellTiter-Glo luminescent cell viability assay, HCT-116; settings: for viability at 4 µM: HCT-116, compound at 4 μM; for viability at 4 µM / viability at 10 µM: 72 h; for viability at 10 µM: HCT-116, compound at 10 μM; for EC50: HCT-116 cell line, 72 h incubation, CellTiter-Glo, read-out: EC50, growth inhibition of HCT-116
# Procedure: as §1, §2, §3
# [5] = test system: MOLM-14 (acute myeloid leukemia) cell line; assay: CellTiter-Glo luminescent cell viability assay, MOLM-14; settings: for viability at 4 µM: MOLM-14, compound at 4 μM; for viability at 4 µM / viability at 10 µM: 72 h; for viability at 10 µM: MOLM-14, compound at 10 μM; for EC50: MOLM-14 cell line, 72 h incubation, CellTiter-Glo, read-out: EC50, growth inhibition of MOLM-14
# Procedure: as §1, §2, §3
# [6] = test system: Huh7 (hepatocellular carcinoma) cell line; assay: CellTiter-Glo luminescent cell viability assay, Huh7; settings: for viability at 4 µM: Huh7, compound at 4 μM; for viability at 4 µM / viability at 10 µM: 72 h; for viability at 10 µM: Huh7, compound at 10 μM; for EC50: Huh7 cell line, 72 h incubation, CellTiter-Glo, read-out: EC50, growth inhibition of Huh7
# Procedure: as §1, §2, §3
"EC50 ([1]; Homo sapiens, 786-0) [µM]","EC50 ([2]; Homo sapiens, A-375) [µM]",EC50 ([3]; Homo sapiens) [µM],EC50 ([4]; Homo sapiens) [µM],EC50 ([5]; Homo sapiens) [µM],"EC50 ([6]; Homo sapiens, Huh-7) [µM]",SMILES,further results
5 to 10,0.5 to 5,0.5 to 5,0.5 to 5,5 to 10,5 to 10,"Cc1ccc(Nc2nc3ccccc3c(N3CCC(NC(C)(C)C)CC3)c2C#N)cc1Nc1nccc(C(F)(F)F)n1 [Compound 538CN, 2-[3-(4-trifluoromethylpyrimidin-2-ylamino)-4-methyl-phenylamino]-3-cyano-4-(4-tert-butylaminopiperidin-1-yl)-quinoline]",–
0.5 to 5,0.5 to 5,5 to 10,0.5 to 5,0.5 to 5,0.5 to 5,"CC(C)(C)NC1CCN(c2c(C#N)c(Nc3cccc(Nc4nccc(C(F)(F)F)n4)c3)nc3ccccc23)CC1 [Compound 540CN, 2-[3-(4-trifluoromethylpyrimidin-2-ylamino)phenylamino]-3-cyano-4-(4-tert-butylaminopiperidin-1-yl)quinoline]",–

# Second part, the compound before the results:
SMILES,"EC50 ([1]; Homo sapiens, 786-0) [µM]","EC50 ([2]; Homo sapiens, A-375) [µM]",EC50 ([3]; Homo sapiens) [µM],EC50 ([4]; Homo sapiens) [µM],EC50 ([5]; Homo sapiens) [µM],"EC50 ([6]; Homo sapiens, Huh-7) [µM]",further results
"Cc1cc(Nc2nc3ccccc3c(N3CCC(NC(C)(C)C)CC3)c2C#N)ccc1Nc1nccc(C(F)(F)F)n1 [Compound 534CN, 2-[3-methyl-4-(4-trifluoromethylpyrimidin-2-ylamino)phenylamino]-3-cyano-4-(4-tert-butylaminopiperidin-1-yl)quinoline]",–,–,–,–,–,–,"viability at 4 µM ([1]; Homo sapiens, 786-0): 2.1%; viability at 10 µM ([1]; Homo sapiens, 786-0): 0.2%; viability at 4 µM ([2]; Homo sapiens, A-375): 0.4%; viability at 10 µM ([2]; Homo sapiens, A-375): 0.2%; viability at 4 µM ([3]; Homo sapiens): 13%; viability at 10 µM ([3]; Homo sapiens): 0.2%; viability at 4 µM ([4]; Homo sapiens): 0.4%; viability at 10 µM ([4]; Homo sapiens): 0.2%; viability at 4 µM ([5]; Homo sapiens): 0.4%; viability at 10 µM ([5]; Homo sapiens): 0.3%; viability at 4 µM ([6]; Homo sapiens, Huh-7): 49.1%; viability at 10 µM ([6]; Homo sapiens, Huh-7): 0.4%"
"CC(C)(C)NC1CCN(c2c(F)c(Nc3cccc(Nc4nccc(C(F)(F)F)n4)c3)nc3ccccc23)CC1 [Compound 540F, 2-[3-(4-trifluoromethylpyrimidin-2-ylamino)phenylamino]-3-fluoro-4-(4-tert-butylaminopiperidin-1-yl)quinoline]",–,–,–,–,–,–,"viability at 4 µM ([1]; Homo sapiens, 786-0): 0.8%; viability at 10 µM ([1]; Homo sapiens, 786-0): 0.3%; viability at 4 µM ([2]; Homo sapiens, A-375): 0.4%; viability at 10 µM ([2]; Homo sapiens, A-375): 0.3%; viability at 4 µM ([3]; Homo sapiens): 0.3%; viability at 10 µM ([3]; Homo sapiens): 0.2%; viability at 4 µM ([4]; Homo sapiens): 0.4%; viability at 10 µM ([4]; Homo sapiens): 0.3%; viability at 4 µM ([5]; Homo sapiens): 8.8%; viability at 10 µM ([5]; Homo sapiens): 0.3%; viability at 4 µM ([6]; Homo sapiens, Huh-7): 43.3%; viability at 10 µM ([6]; Homo sapiens, Huh-7): 59.4%"
"Cc1c(Nc2cccc(Nc3nccc(C(F)(F)F)n3)c2)nc2ccccc2c1N1CCC(NC(C)(C)C)CC1 [Compound 540Me, 2-[3-(4-trifluoromethylpyrimidin-2-ylamino)phenylamino]-3-methyl-4-(4-tert-butylaminopiperidin-1-yl)quinoline]",–,–,–,–,–,–,"viability at 4 µM ([1]; Homo sapiens, 786-0): 2.6%; viability at 10 µM ([1]; Homo sapiens, 786-0): 0.1%; viability at 4 µM ([2]; Homo sapiens, A-375): 1.6%; viability at 10 µM ([2]; Homo sapiens, A-375): 0.1%; viability at 4 µM ([3]; Homo sapiens): 38.3%; viability at 10 µM ([3]; Homo sapiens): 0.1%; viability at 4 µM ([4]; Homo sapiens): 0.4%; viability at 10 µM ([4]; Homo sapiens): 0.1%; viability at 4 µM ([5]; Homo sapiens): 63.1%; viability at 10 µM ([5]; Homo sapiens): 0.3%; viability at 4 µM ([6]; Homo sapiens, Huh-7): 63.9%; viability at 10 µM ([6]; Homo sapiens, Huh-7): 0.2%"
"Cc1ccc2c(N3CCC(NC(C)(C)C)CC3)cc(NCc3ccc(Cl)cc3)nc2c1F [Compound 564, 2-(4-chlorobenzylamino)-4-[4-(tert-butylamino)piperidin-1-yl]-7-methyl-8-fluoroquinoline]",0.5 to 5,0.5 to 5,0.5 to 5,0.5 to 5,0.5 to 5,5 to 10,–
"Cc1cc(F)c2nc(NCc3ccc(Cl)cc3)cc(N3CCC(NC(C)(C)C)CC3)c2c1 [Compound 568, 2-(4-chlorobenzylamino)-4-[4-(tert-butylamino)piperidin-1-yl]-6-methyl-8-fluoroquinoline]",0.5 to 5,0.5 to 5,0.5 to 5,0.5 to 5,0.5 to 5,5 to 10,–
"Cc1c(F)ccc2c(N3CCC(NC(C)(C)C)CC3)cc(NCc3ccc(Cl)cc3)nc12 [Compound 572, 2-(4-chlorobenzylamino)-4-[4-(tert-butylamino)piperidin-1-yl]-7-fluoro-8-methylquinoline]",0.5 to 5,0.5 to 5,0.5 to 5,0.5 to 5,0.5 to 5,0.5 to 5,–
"CNC(=O)C1CCN(c2cc(NCc3ccc(Cl)cc3)nc3ccccc23)CC1 [Compound 1598, 2-(4-chlorobenzylamino)-4-[4-(methylcarbamoyl)piperidin-1-yl]quinoline hydrochloride]",5 to 10,5 to 10,0.5 to 5,0.5 to 5,5 to 10,0.5 to 5,–
"CC(C)(C)NC(=O)C1CCN(c2cc(NCc3ccc(Cl)cc3)nc3ccccc23)CC1 [Compound 1604, 2-(4-chlorobenzylamino)-4-[4-(tert-butylaminocarbonyl)-piperidin-1-yl]-quinoline hydrochloride]",5 to 10,5 to 10,0.5 to 5,5 to 10,5 to 10,0.5 to 5,–
"CN1CCN(C(=O)C2CCN(c3cc(NCc4ccc(Cl)cc4)nc4ccccc34)CC2)CC1 [Compound 1656, 2-(4-chlorobenzylamino)-4-[4-(4-methylpiperazine-1-carbonyl)-piperidin-1-yl]-quinoline hydrochloride]",0.5 to 5,0.5 to 5,0.5 to 5,0.5 to 5,0.5 to 5,0.5 to 5,–
"OC[C@@H]1CCCN1c1cc(NCc2ccc(Cl)cc2)nc2ccccc12 [Compound 2308, (2S) 2-(4-chlorobenzylamino)-4-[2-(hydroxymethyl)pyrrolidin-1-yl]quinoline, hydrochloride]",–,–,–,–,–,–,EC50 [1]: 5 to 10 µM; EC50 [2]: 0.5 to 5 µM; EC50 [3]: 0.5 to 5 µM; EC50 [4]: 5 to 10 µM; EC50 [5]: 0.5 to 5 µM; EC50 [6]: 0.5 to 5 µM
"COC[C@@H]1CCCN1c1cc(NCc2ccc(Cl)cc2)nc2ccccc12 [Compound 2310, (2S) 2-(4-chlorobenzylamino)-4-[2-(methoxymethyl)pyrrolidin-1-yl]quinoline, hydrochloride]",5 to 10,0.5 to 5,0.5 to 5,0.5 to 5,0.5 to 5,0.5 to 5,–
"OC[C@H]1CCCN1c1cc(NCc2ccc(Cl)cc2)nc2ccccc12 [Compound 2380, (2R)-2-(4-chlorobenzylamino)-4-[2-(hydroxymethyl)-pyrrolidin-1-yl]-quinoline hydrochloride]",5 to 10,0.5 to 5,0.5 to 5,0.5 to 5,0.5 to 5,0.5 to 5,–
"CC(C)OC1CCN(c2cc(NCc3ccc(Cl)cc3)nc3ccccc23)CC1 [Compound 2918, 2-(4-chlorobenzylamino)-4-[4-(iso-propoxy)-piperidin-1-yl]-quinoline hydrochloride]",5 to 10,5 to 10,0.5 to 5,0.5 to 5,0.5 to 5,5 to 10,–
